Measurements: PubChem BioAssay (NCI)
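These data come from cells grown in 96-well plates and exposed to compound for 48 hours at five concentrations. Definition used: TGI = concentration required for complete inhibition of growth.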

Assays:
Assay in all cases: NCI tumour cell line growth inhibition, 48 h
K-562 leukemia = tested on: K-562 leukemia
SW-620 colon = tested on: SW-620 colon
MOLT-4 leukemia = tested on: MOLT-4 leukemia
HOP-92 NSCLC = tested on: HOP-92 NSCLC
SK-OV-3 ovarian = tested on: SK-OV-3 ovarian
TK-10 renal = tested on: TK-10 renal
SF-539 CNS = tested on: SF-539 CNS
RPMI-8226 leukemia = tested on: RPMI-8226 leukemia
SNB-19 CNS = tested on: SNB-19 CNS
HOP-18 NSCLC = tested on: HOP-18 NSCLC
UACC-62 melanoma = tested on: UACC-62 melanoma
U251 CNS = tested on: U251 CNS
HCC-2998 colon = tested on: HCC-2998 colon
SF-268 CNS = tested on: SF-268 CNS
KM12 colon = tested on: KM12 colon
OVCAR-4 ovarian = tested on: OVCAR-4 ovarian
M14 melanoma = tested on: M14 melanoma
SK-MEL-2 melanoma = tested on: SK-MEL-2 melanoma
SN12C renal = tested on: SN12C renal
RXF 393 renal = tested on: RXF 393 renal

SMILES	TGI (K-562 leukemia) [µM]	TGI (SW-620 colon) [µM]	TGI (MOLT-4 leukemia) [µM]	TGI (HOP-92 NSCLC) [µM]	TGI (SK-OV-3 ovarian) [µM]	TGI (TK-10 renal) [µM]	TGI (SF-539 CNS) [µM]	TGI (RPMI-8226 leukemia) [µM]	TGI (SNB-19 CNS) [µM]	TGI (HOP-18 NSCLC) [µM]	TGI (UACC-62 melanoma) [µM]	TGI (U251 CNS) [µM]	TGI (HCC-2998 colon) [µM]	TGI (SF-268 CNS) [µM]	TGI (KM12 colon) [µM]	TGI (OVCAR-4 ovarian) [µM]	TGI (M14 melanoma) [µM]	TGI (SK-MEL-2 melanoma) [µM]	TGI (SN12C renal) [µM]	TGI (RXF 393 renal) [µM]
CCOC(=O)/C(C#N)=c1/s/c(=C(\O)N/N=C/c2ccc(OC)cc2)c(=N)n1-c1ccccc1	> 100	> 100	> 100	> 100	> 100	> 100	> 100	> 100	> 100	> 100	> 100	> 100	> 100	> 100	> 100					
CCCCCCCCCCCCOC(=N)N1CCOCC1	7.47	16.6	6.89	13.8	34.1	31.6	19.1	5.15	35.5	16.3	24.7	21.9	23.8	30.4	19.3	21.2	14.1	23.9	> 52.3	25.9
CS(=O)(=O)Sc1ccc(Cl)cc1	42.6	25.3	21.7	20	43.9	31.2	10.9	41.9	25.1	55.4		11.5	24	12.7	19.7	29.7	25.8	25.6	16	20.8
Nc1ccc(Oc2ccc(C3(c4ccc(Oc5ccc(N)c(O)c5)cc4)C4CC5CC(C4)CC3C5)cc2)cc1O	5.56		4.08	8.94	7.1	4.54	2.35	5.64	7.6		7.68		3.01		4.59	24.9	3.18	3.88	3.62	4.51
O=c1cc(O)c1=O	> 100	> 100	> 100	> 100	> 100	> 100	> 100	> 100	> 100		> 100	> 100	> 100	> 100	> 100	> 100	> 100	> 100	> 100	
